Assay results reported in ChEMBL document CHEMBL1201862, “PubChem BioAssay data set” (2004).
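Five concentrations, 48 hours, 96-well plates. GI50: concentration for 50% inhibition of growth.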 The source made the active and inactive calls. No stated cut-off is given here; in the data, active = GI50 up to about 1.1 µM and inactive = higher.

Assays:
Assay in all cases: DTP human tumour cell line panel, 48 h
[1] = test system: 786-0
[2] = test system: DU-145
[3] = test system: EKVX
[4] = test system: HOP-92
[5] = test system: Hs-578T
[6] = test system: IGROV-1
[7] = test system: M14
[8] = test system: MCF7
[9] = test system: MDA-MB-435
[10] = test system: NCI-H226
[11] = test system: NCI-H460
[12] = test system: NCI/ADR-RES
[13] = test system: RXF 393
[14] = test system: SW-620
[15] = test system: T47D
[16] = test system: U-251
[17] = test system: UACC-257
[18] = test system: DMS-114
[19] = test system: DLD-1
[20] = test system: SNB-78

Row | Compound | GI50 [1] | GI50 [2] | GI50 [3] | GI50 [4] | GI50 [5] | GI50 [6] | GI50 [7] | GI50 [8] | GI50 [9] | GI50 [10] | GI50 [11] | GI50 [12] | GI50 [13] | GI50 [14] | GI50 [15] | GI50 [16] | GI50 [17] | GI50 [18] | GI50 [19] | GI50 [20]
1 | COc1ccc(C(c2cc3c(cc2O)OCO3)N2CCOCC2)cc1OC (configuration not stated) | 11.1 µM (inactive) | 12.1 µM (inactive) | 19.1 µM (inactive) | 16 µM (inactive) | 2.75 µM (inactive) | 14.9 µM (inactive) | 12.4 µM (inactive) | 12.8 µM (inactive) | 11.3 µM (inactive) | 11.1 µM (inactive) | 22 µM (inactive) | 5.89 µM (inactive) | 18.8 µM (inactive) | 2.72 µM (inactive) | 16.9 µM (inactive) | 9.64 µM (inactive) | 15.7 µM (inactive) |  |  | 
2 | O=C(NN1C(=O)C(Cl)C1c1cccc([N+](=O)[O-])c1)c1ccccc1O (configuration not stated) |  |  | > 100 µM (inactive) | > 100 µM (inactive) |  | 76.4 µM (inactive) | > 100 µM (inactive) |  |  |  | > 100 µM (inactive) |  | > 100 µM (inactive) | > 100 µM (inactive) |  | > 100 µM (inactive) | > 100 µM (inactive) | > 100 µM (inactive) |  | 
3 | O=C(Nc1ccc([N+](=O)[O-])cc1[N+](=O)[O-])C(=O)C(C(=O)c1ccc2ccccc2c1)C1OC(=O)c2ccccc21 (configuration not stated) |  |  | 15.5 µM (inactive) | 17.8 µM (inactive) |  | 19.8 µM (inactive) | 15.9 µM (inactive) |  |  | 2.69 µM (inactive) | 13.2 µM (inactive) |  | 12 µM (inactive) | 13.2 µM (inactive) |  | 4.33 µM (inactive) | 24.4 µM (inactive) | 17.9 µM (inactive) | 27.5 µM (inactive) | 21.4 µM (inactive)
4 | CC(C)C1CN(C(=O)OCc2ccccc2)C2N1C(=O)C2(C)OCc1ccccc1 (configuration not stated) | 49.3 µM (inactive) |  | 34 µM (inactive) |  |  | 35.9 µM (inactive) | 36.1 µM (inactive) |  |  | 22 µM (inactive) | 21.6 µM (inactive) |  | 21.4 µM (inactive) | 40.9 µM (inactive) |  | 41.7 µM (inactive) | 28.2 µM (inactive) | 31.3 µM (inactive) | 36 µM (inactive) | 
5 | COc1cc2c(c(OC)c1OC)-c1[nH]ncc1CC2 | > 100 µM (inactive) |  | > 100 µM (inactive) | > 100 µM (inactive) |  | > 100 µM (inactive) | > 100 µM (inactive) |  |  | > 100 µM (inactive) | > 100 µM (inactive) |  |  | > 100 µM (inactive) |  | > 100 µM (inactive) | > 100 µM (inactive) | > 100 µM (inactive) | > 100 µM (inactive) | > 100 µM (inactive)
6 | O=C(Nc1ccc(F)cc1)c1cc2ccc(O)cc2o/c1=N\c1ccccc1F | 24.4 µM (inactive) | 34.4 µM (inactive) | 13.5 µM (inactive) |  | 26.8 µM (inactive) | 10.1 µM (inactive) |  | 28.8 µM (inactive) | 27.9 µM (inactive) |  | 18.8 µM (inactive) | 15.6 µM (inactive) |  | 34.2 µM (inactive) | 14.8 µM (inactive) | 19.9 µM (inactive) | 27.6 µM (inactive) |  |  | 
7 | O=C(/C=C/CC(O)(c1ccccc1)c1ccccc1)Nc1ccccc1Cl |  |  | > 100 µM (inactive) | > 100 µM (inactive) |  |  | > 100 µM (inactive) |  |  | > 100 µM (inactive) | > 100 µM (inactive) |  |  | > 100 µM (inactive) |  | > 100 µM (inactive) | > 100 µM (inactive) | > 100 µM (inactive) | > 100 µM (inactive) | 
8 | NC(CCOCCP(=O)(O)CCC1C=CC=CC1)C(=O)O (configuration not stated) |  | > 100 µM (inactive) | > 100 µM (inactive) | > 100 µM (inactive) | > 100 µM (inactive) | > 100 µM (inactive) | > 100 µM (inactive) | > 100 µM (inactive) | > 100 µM (inactive) |  | > 100 µM (inactive) | > 100 µM (inactive) | > 100 µM (inactive) | > 100 µM (inactive) | 43.3 µM (inactive) | > 100 µM (inactive) | > 100 µM (inactive) |  |  | 
9 | Cc1c2[nH]c3ccc(Br)cc3c2c(C)c2nccc(O)c12 | 11.1 µM (inactive) |  | 16.4 µM (inactive) |  |  |  | 12.8 µM (inactive) |  |  | 16.6 µM (inactive) | 6.9 µM (inactive) |  |  | 11.7 µM (inactive) |  |  | 16.4 µM (inactive) | 17.7 µM (inactive) | 27.9 µM (inactive) | 16.2 µM (inactive)
10 | Nc1nc(N)c2c(CCc3ccc(C(=O)N[C@@H](CCC(=O)O)C(=O)O)cc3)ccnc2n1 |  | 0.055 µM (active) | > 100 µM (inactive) | 1.21 µM (inactive) | 52 µM (inactive) | 0.029 µM (active) | < 0.0218 µM (active) | < 0.01 µM (active) | < 0.01 µM (active) | > 100 µM (inactive) | < 0.01 µM (active) | < 0.0211 µM (active) | 0.0465 µM (active) |  | 75.5 µM (inactive) |  | 0.257 µM (active) |  |  | 
11 | CC(C)(CCCCC(C)(C)NC1=NCCO1)NC1=NCCO1 |  | > 10 µM (inactive) | > 10 µM (inactive) |  | > 10 µM (inactive) | > 10 µM (inactive) | > 10 µM (inactive) | > 10 µM (inactive) | > 10 µM (inactive) | > 10 µM (inactive) | > 10 µM (inactive) | > 10 µM (inactive) | > 10 µM (inactive) | > 10 µM (inactive) | > 10 µM (inactive) | > 10 µM (inactive) |  |  |  | 
12 | O=C1C(=CNC(=S)c2ccccc2)C(=O)c2ccccc21 | 27.5 µM (inactive) | 57.8 µM (inactive) | 60.8 µM (inactive) | 40.7 µM (inactive) | 54 µM (inactive) | 29.4 µM (inactive) | 65.6 µM (inactive) | 35.2 µM (inactive) | 71.8 µM (inactive) | > 100 µM (inactive) | 70.8 µM (inactive) | 61.5 µM (inactive) | 46.7 µM (inactive) | 55.8 µM (inactive) | 60.1 µM (inactive) | 64.9 µM (inactive) | 55.1 µM (inactive) |  |  | 
13 | CC1C(NNC(N)=O)Oc2cc3c(cc2C1c1ccccc1O)OCO3 (configuration not stated) |  | 49.7 µM (inactive) | 66.8 µM (inactive) | 16.5 µM (inactive) | 25.3 µM (inactive) | 26.3 µM (inactive) | 39.3 µM (inactive) | 36.8 µM (inactive) | 20.5 µM (inactive) | 34.6 µM (inactive) | 38.8 µM (inactive) |  | 23.8 µM (inactive) | 16.6 µM (inactive) | 38.6 µM (inactive) | 38.7 µM (inactive) | 35.7 µM (inactive) |  |  | 
14 | NC1C2C=CC(C2)C1C(=O)O (configuration not stated) | > 100 µM (inactive) | > 100 µM (inactive) | > 100 µM (inactive) | > 100 µM (inactive) | > 100 µM (inactive) | > 100 µM (inactive) | > 100 µM (inactive) | > 100 µM (inactive) | > 100 µM (inactive) | > 100 µM (inactive) |  | > 100 µM (inactive) | > 100 µM (inactive) | > 100 µM (inactive) | > 100 µM (inactive) | > 100 µM (inactive) |  |  |  | 
15 | CC(=O)O[C@H]1[C@@H](OC(C)=O)C(C)(C)/C=C/[C@H](C)C(=O)[C@@]2(OC(C)=O)C[C@@](C)(OC(C)=O)[C@H](OC(C)=O)[C@@H]2[C@H]2OC(=O)CC[C@@]2(OC(=O)c2ccccc2)[C@@H]1OCC(C)C |  | 97.3 µM (inactive) | 87.9 µM (inactive) | 0.977 µM (active) | 11.2 µM (inactive) | 68.5 µM (inactive) | 15.6 µM (inactive) | 37 µM (inactive) | 8.39 µM (inactive) | 92 µM (inactive) | 4.1 µM (inactive) | 69 µM (inactive) | 46.7 µM (inactive) | 10.7 µM (inactive) | 58.5 µM (inactive) | 80.4 µM (inactive) | 85.1 µM (inactive) |  |  | 
16 | O=C1C=CC2(O[C@@H](Cc3ccccc3)[C@H](Cc3ccccc3)O2)C(SC(=O)c2ccccc2)C1 (some centres not stated) | 0.152 µM (active) | 2.39 µM (inactive) |  | 1.54 µM (inactive) | 1.38 µM (inactive) | 1.26 µM (inactive) | 1.45 µM (inactive) | 0.568 µM (active) | 2.11 µM (inactive) | 1.52 µM (inactive) | 2.59 µM (inactive) | 1.07 µM (active) | 0.0849 µM (active) | 0.231 µM (active) | 0.764 µM (active) | 1.3 µM (inactive) | 1.18 µM (inactive) |  |  | 
17 | O=C1N[C@@H]([C@H](CCCCCO)OC(=O)c2ccccc2)CO1 | > 100 µM (inactive) | > 100 µM (inactive) | > 100 µM (inactive) | > 100 µM (inactive) | > 100 µM (inactive) | > 100 µM (inactive) |  | > 100 µM (inactive) | > 100 µM (inactive) | > 100 µM (inactive) | > 100 µM (inactive) | > 100 µM (inactive) | > 100 µM (inactive) | > 100 µM (inactive) | > 100 µM (inactive) | > 100 µM (inactive) | > 100 µM (inactive) |  |  | 
18 | C=C1CC(OC)(C(O)C(=O)N[C@H]2OCO[C@H]3C2O[C@H](C[C@@H](CO)OC)C(C)(C)C3OC)O[C@H](C)[C@@H]1C (some centres not stated) |  |  |  | < 0.00931 µM (active) |  | < 0.00931 µM (active) |  | < 0.00931 µM (active) |  | < 0.00931 µM (active) | < 0.00931 µM (active) | < 0.00931 µM (active) | < 0.00931 µM (active) | < 0.00931 µM (active) |  | < 0.00931 µM (active) | < 0.00931 µM (active) | < 0.00931 µM (active) | < 0.00931 µM (active) | 
19 | Cn1c(=O)nc2n(-c3ccc(Cl)cc3Cl)c3ccccc3nc-2c1=O |  |  | 5.27 µM (inactive) | 7.21 µM (inactive) |  | 12.8 µM (inactive) | 1.76 µM (inactive) |  |  |  |  |  | 3.96 µM (inactive) |  |  | 5.06 µM (inactive) |  | 1.94 µM (inactive) | 3.29 µM (inactive) | 14.6 µM (inactive)
